The values that follow come from publication PMC9571049 (Molecules, 2022).

Read-outs that look alike come from different tables or passages of the source. Where only a bound is given, the exact number is not on record here.

Data set [1] has as its target H1N1 NA (A/PuertoRico/8/1934) (Influenza A virus, UniProt P03468). The data set is described as follows: biochemical.
The nature of data set [2]: in vitro. The settings on record: dog.
The subject of data set [3] is A/Goose/Guangdong/SH7/2013 (H5N1). The data set is described as follows: microbe, parasite or virus in culture. The data set is classed as cell-based. The settings on record: read-out: EC50 towards influenza virus H5N1.
Data set [4] in a line: in vitro. The settings on record: chicken.
The next data set deals with A/PR/8/34 (H1N1). Description: microbe, parasite or virus in culture. The data set is classed as cell-based. As to conditions: read-out: EC50 towards influenza virus H1N1.
In data set [5] the test system is A/Goose/Jiangsu/1306/2014 (H5N8). Description: microbe, parasite or virus in culture. The data set is classed as cell-based. The settings on record: read-out: EC50 towards influenza virus H5N8.
Another data set deals with A/Wisconsin/67/05 (H3N2). Description: microbe, parasite or virus in culture. The data set is classed as cell-based. As to conditions: read-out: EC50 towards influenza virus H3N2.
The subject of the next data set is N1, H5N1. As to conditions: cited from earlier work.

H1N1 NA (A/PuertoRico/8/1934), sequence (P03468 whole entry, looked up): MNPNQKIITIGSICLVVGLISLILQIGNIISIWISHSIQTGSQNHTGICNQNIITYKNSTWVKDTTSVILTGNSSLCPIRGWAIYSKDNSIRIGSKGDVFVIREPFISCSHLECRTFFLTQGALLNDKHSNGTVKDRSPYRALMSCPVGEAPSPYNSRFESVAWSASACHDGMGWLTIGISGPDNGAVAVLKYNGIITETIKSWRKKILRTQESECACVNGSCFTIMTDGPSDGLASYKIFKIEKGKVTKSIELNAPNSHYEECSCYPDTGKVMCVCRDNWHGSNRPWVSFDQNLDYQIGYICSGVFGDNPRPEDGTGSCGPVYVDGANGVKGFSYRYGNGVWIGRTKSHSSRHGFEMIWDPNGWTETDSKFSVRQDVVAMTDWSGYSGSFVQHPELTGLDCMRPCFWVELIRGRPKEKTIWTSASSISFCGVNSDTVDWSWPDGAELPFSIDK

As for `CCC(CC)O[C@@H]1C=C(C(=O)O)C[C@H](NCc2ccc(OCc3ccccc3B(O)O)cc2)[C@H]1NC(C)=O` [Compound 1c, (3R,4R,5S)-4-acetamido-5-((4-((2-boronobenzyl)oxy)benzyl)amino)-3-(pentan-3-yloxy)cyclohex-1-ene-1-carboxylic acid], the melting point was 146.3 to 150.5 °C (dec.). For the same molecule, the midpoint of inhibition in data set [1], the IC50, lay at 690 ± 130 nM.
As to `CCC(CC)O[C@@H]1C=C(C(=O)O)C[C@H](NCc2ccc(OCc3ccc(B(O)O)cc3)cc2)[C@H]1NC(C)=O` [Compound 3c, (3R,4R,5S)-4-acetamido-5-((4-((4-boronobenzyl)oxy)benzyl)amino)-3-(pentan-3-yloxy)cyclohex-1-ene-1-carboxylic acid], the melting point is 168.3 to 172.1 °C (dec.). The molecule further showed a CC50 in the data set “in vitro [2]” greater than 250 µM. Moreover, in data set [3] (Influenza A virus, H5N1, CEF), the concentration for a half-maximal effect (EC50) is 3200 ± 440 nM. For the same molecule, the CC50 in “in vitro [4]” was found to be 289 ± 15.8 µM. Moreover, the EC50 in the data set with A/PR/8/34 (H1N1) (Influenza A virus, MDCK) was 20 ± 10 nM. Besides, the IC50 in data set [1] was found to be 45 ± 6.7 nM. Further, the EC50 in data set [5] (Influenza A virus, H5N8, CEF) was determined as 2510 ± 230 nM. In addition, the EC50 in the data set on A/Wisconsin/67/05 (H3N2) (Influenza A virus, H3N2, MDCK) worked out at 3080 ± 590 nM.
On to `CCC(CC)O[C@@H]1C=C(C(=O)O)C[C@H](NCc2ccc(OCc3ccccc3C(=O)O)cc2)[C@H]1NC(C)=O` [Compound 4c, 2-((4-((((1S,5R,6R)-6-acetamido-3-carboxy-5-(pentan-3-yloxy)cyclohex-3-en-1-yl)amino)methyl)phenoxy)methyl)benzoic acid], for which the melting point was 177.1 to 178.9 °C. The same molecule gave an IC50 in data set [1] of 15000 ± 880 nM.
The molecule `CCC(CC)O[C@@H]1C=C(C(=O)O)C[C@H](NCc2ccc(OCc3cccc(C(=O)O)c3)cc2)[C@H]1NC(C)=O` [Compound 5c, 3-((4-((((1S,5R,6R)-6-acetamido-3-carboxy-5-(pentan-3-yloxy)cyclohex-3-en-1-yl)amino)methyl)phenoxy)methyl)benzoic acid] returned an IC50 in data set [1] of 390 ± 40 nM.
On to `CCC(CC)O[C@@H]1C=C(C(=O)O)C[C@H](NCc2ccc(OCc3ccc(C(=O)O)cc3)cc2)[C@H]1NC(C)=O` [Compound 6c, 4-((4-((((1S,5R,6R)-6-acetamido-3-carboxy-5-(pentan-3-yloxy)cyclohex-3-en-1-yl)amino)methyl)phenoxy)methyl)benzoic acid], for which the melting point was 193.3 to 195.5 °C (dec.). The molecule further showed an IC50 in data set [1] of 600 ± 130 nM.
The molecule `CCC(CC)O[C@@H]1C=C(C(=O)O)C[C@H](NCc2ccc(OCc3cc(C(=O)O)ccc3OC)cc2)[C@H]1NC(C)=O` [Compound 7c, 3-((4-((((1S,5R,6R)-6-acetamido-3-carboxy-5-(pentan-3-yloxy)cyclohex-3-en-1-yl)amino)methyl)phenoxy)methyl)-4-methoxybenzoic acid] gave an IC50 in data set [1] of 14000 ± 930 nM.
On to `CCC(CC)O[C@@H]1C=C(C(=O)O)C[C@H](NCc2ccc(OCc3ccc(C(=O)O)cc3Cl)cc2)[C@H]1NC(C)=O` [Compound 8c, 4-((4-((((1S,5R,6R)-6-acetamido-3-carboxy-5-(pentan-3-yloxy)cyclohex-3-en-1-yl)amino)methyl)phenoxy)methyl)-3-chlorobenzoic acid], for which the melting point is 189.3 to 192.1 °C (dec.). In addition, in [1], the IC50 came out at 250 ± 31 nM.
Take `CCC(CC)O[C@@H]1C=C(C(=O)O)C[C@H](NCc2ccc(OCc3ccc(C(=O)O)cc3OC)cc2)[C@H]1NC(C)=O` [Compound 9c, 4-((4-((((1S,5R,6R)-6-acetamido-3-carboxy-5-(pentan-3-yloxy)cyclohex-3-en-1-yl)amino)methyl)phenoxy)methyl)-3-methoxybenzoic acid]: the melting point was 171.2 to 175.7 °C (dec.). This molecule also had an IC50 in [1] of 3210 ± 380 nM.
The corresponding values for `CCC(CC)O[C@@H]1C=C(C(=O)O)C[C@H](NCc2ccc(OCc3ccc(C(=O)O)c(OC)c3)cc2)[C@H]1NC(C)=O` [Compound 10c, 4-((4-((((1S,5R,6R)-6-acetamido-3-carboxy-5-(pentan-3-yloxy)cyclohex-3-en-1-yl)amino)methyl)phenoxy)methyl)-2-methoxybenzoic acid] are 190.5 to 195.1 °C (dec.) and 3590 ± 25 nM.
On the same counts, the results for `CCC(CC)O[C@@H]1C=C(C(=O)O)C[C@H](NCc2ccc(OCc3ccccc3[N+](=O)[O-])cc2)[C@H]1NC(C)=O` [Compound 11c, (3R,4R,5S)-4-acetamido-5-((4-((2-nitrobenzyl)oxy)benzyl)amino)-3-(pentan-3-yloxy)cyclohex-1-ene-1-carboxylic acid] are 150.8 to 152.7 °C and 1160 ± 110 nM.
`CCC(CC)O[C@@H]1C=C(C(=O)O)C[C@H](NCc2ccc(OCc3cccc([N+](=O)[O-])c3)cc2)[C@H]1NC(C)=O` [Compound 12c, (3R,4R,5S)-4-acetamido-5-((4-((3-nitrobenzyl)oxy)benzyl)amino)-3-(pentan-3-yloxy)cyclohex-1-ene-1-carboxylic acid] gave an IC50 in data set [1] of 170 ± 6.8 nM.
In the case of `CCC(CC)O[C@@H]1C=C(C(=O)O)C[C@H](NCc2ccc(OCc3ccc([N+](=O)[O-])cc3)cc2)[C@H]1NC(C)=O` [Compound 13c, (3R,4R,5S)-4-acetamido-5-((4-((4-nitrobenzyl)oxy)benzyl)amino)-3-(pentan-3-yloxy)cyclohex-1-ene-1-carboxylic acid], the melting point is 184.1 to 187.5 °C (dec.). In data set [1], the IC50 stood at 500 ± 63 nM.
Turning to `CCC(CC)O[C@@H]1C=C(C(=O)O)C[C@H](NCc2ccc(OCc3cccc(C(N)=O)c3)cc2)[C@H]1NC(C)=O` [Compound 14c, (3R,4R,5S)-4-acetamido-5-((4-((3-carbamoylbenzyl)oxy)benzyl)amino)-3-(pentan-3-yloxy)cyclohex-1-ene-1-carboxylic acid], the CC50 in “in vitro [2]” is greater than 250 µM; in “in vitro [4]”, 291 ± 17.9 µM. Moreover, the EC50 in [3] (Influenza A virus, H5N1, CEF) was 1180 ± 170 nM; in the data set with A/PR/8/34 (H1N1) (Influenza A virus, MDCK), 210 ± 20 nM; in data set [5] (Influenza A virus, H5N8, CEF) it was 2800 ± 460 nM; in the data set with A/Wisconsin/67/05 (H3N2) (Influenza A virus, H3N2, MDCK) it was greater than 100000 nM. Inhibition in data set [1] was half-maximal at 11 ± 1.3 nM (IC50).
In data set [1], `CCC(CC)O[C@@H]1C=C(C(=O)O)C[C@H](NCc2ccc(OCc3ccc(C(N)=O)cc3)cc2)[C@H]1NC(C)=O` [Compound 15c, (3R,4R,5S)-4-acetamido-5-((4-((4-carbamoylbenzyl)oxy)benzyl)amino)-3-(pentan-3-yloxy)cyclohex-1-ene-1-carboxylic acid] came in with an IC50 of 1730 ± 290 nM.
For the molecule `CCC(CC)O[C@@H]1C=C(C(=O)O)C[C@H](NCc2ccc(OCc3cccc(S(N)(=O)=O)c3)cc2)[C@H]1NC(C)=O` [Compound 16c, (3R,4R,5S)-4-acetamido-3-(pentan-3-yloxy)-5-((4-((3-sulfamoylbenzyl)oxy)benzyl)amino)cyclohex-1-ene-1-carboxylic acid], the melting point was 193.2 to 198.1 °C (dec.). The molecule also had an IC50 in data set [1] of 900 ± 130 nM.
As to `CCC(CC)O[C@@H]1C=C(C(=O)O)C[C@H](NCc2ccc(OCc3ccc(S(N)(=O)=O)cc3)cc2)[C@H]1NC(C)=O` [Compound 17c, (3R,4R,5S)-4-acetamido-3-(pentan-3-yloxy)-5-((4-((4-sulfamoylbenzyl)oxy)benzyl)amino)cyclohex-1-ene-1-carboxylic acid], the IC50 in [1] came to 27 ± 4.8 nM.
As for `CCC(CC)O[C@@H]1C=C(C(=O)O)C[C@H](NCc2ccc(OCc3ccc(S(=O)(=O)O)cc3)cc2)[C@H]1NC(C)=O` [Compound 18c, (3R,4R,5S)-4-acetamido-3-(pentan-3-yloxy)-5-((4-((4-sulfobenzyl)oxy)benzyl)amino)cyclohex-1-ene-1-carboxylic acid], the melting point was 244.5 to 248.7 °C (dec.). The molecule also returned an IC50 in data set [1] of 1640 ± 120 nM.
Regarding `CCC(CC)OC1C=C(C(=O)O)CC(NCc2ccc(-c3ccccc3)cc2)C1NC(C)=O` (stereo not drawn) [JMC20I], in the data set with N1, H5N1, the IC50 is 1.9 nM.
Regarding `CCC(CC)OC1C=C(C(=O)O)CC(NCc2ccc(Sc3cccs3)cc2)C1NC(C)=O` (stereo not drawn) [JMC21g], the IC50 in the data set with N1, H5N1 is 3.83 nM.
On to `CCC(CC)OC1C=C(C(=O)O)CC(NCc2ccc(Sc3ccccc3)cc2)C1NC(C)=O` (stereo not drawn) [JMC21h], for which the IC50 in the data set with N1, H5N1 was 0.96 nM.
For `CCC(CC)O[C@@H]1C=C(C(=O)O)C[C@H](NCc2ccc3sc4ccccc4c3c2)[C@H]1NC(C)=O` [JMC23d], the IC50 with N1, H5N1 is 0.27 nM.
For `CCC(CC)OC1C=C(C(=O)O)CC(NCc2ccc(-c3cccs3)cc2)C1NC(C)=O` (stereo not drawn) [JMC32], the IC50 with N1, H5N1 is 2.1 nM.
Consider `CCC(CC)O[C@@H]1C=C(C(=O)O)C[C@H](N)[C@H]1NC(C)=O` [OSC, oseltamivir carboxylate, reference compound], for which the CC50 in the data set “in vitro [2]” was greater than 250 µM; in “in vitro [4]” it was 201 ± 4.05 µM. Moreover, the EC50 in [3] was found to be 760 ± 66 nM; in the data set on A/PR/8/34 (H1N1) it was […]; in [5] it was 2010 ± 61 nM; with A/Wisconsin/67/05 (H3N2), 360 ± 160 nM.
Regarding `CC(=O)N[C@H]1[C@H]([C@H](O)[C@H](O)CO)OC(C(=O)O)=C[C@@H]1N=C(N)N` [Zanamivir (ZAN), zanamivir, reference compound], the CC50 in the data set “in vitro [2]” is greater than 250 µM. Also, the EC50 in the data set on A/PR/8/34 (H1N1) (Influenza A virus, MDCK) turned out to be […]; in the data set with A/Wisconsin/67/05 (H3N2) (Influenza A virus, H3N2, MDCK), 270 ± 30 nM.

For orientation: melting point means the temperature, or range, at which the solid turns liquid. For orientation: IC50 means the concentration at which inhibition is half-maximal. Broadly, the EC50 is the concentration giving half of the maximal effect.
